Test results: patent EP0949243A1, “OPTICALLY ACTIVE METHOXYIMINOACETAMIDE DERIVATIVES, PROCESS FOR THE PREPARATION OF THEM, INTERMEDIATES THEREFOR, AND PESTICIDES CONTAINING THEM AS THE ACTIVE INGREDIENT” (MITSUBISHI CHEMICAL CORPORATION, priority 1996, dated 1998)
Like-named read-outs stand apart in the source and are kept apart here.

What was measured:
[1] = test system: wheat brown rust fungus (Puccinia recondita); assay: Preventive activity on wheat brown rust (Test Example 2); type: in vivo; details: 10 ppm, foliar application on wheat, wettable powder
[2] = test system: CD rats (female); assay: Oral acute toxicity test using rats (Test Example 3); details: for LC50 value: CD rats (female), single oral administration, suspended in tragacanth gum aqueous solution
Description: Each of the compound No. 2 and its racemate No. 2r was suspended in tragacanth gum aqueous solution and applied to CD rats (female) by single oral administration in a dosage of 300, 600, 1,200, 2,500 or 5,000 mg/kg to obtain its LC50 value.

[3] = test system: wheat powdery mildew fungus (Erysiphe graminis); assay: Preventive activity on wheat powdery mildew (Test Example 1); type: in vivo; details: foliar application on wheat, wettable powder
[4] = test system: wheat powdery mildew fungus (Erysiphe graminis f. sp. tritici); assay: Effect of combined application for controlling wheat powdery mildew (Test Example 5); type: in vivo; details: single chemical
[5] = test system: wheat brown rust fungus (Puccinia recondita); assay: Effect of combined application for controlling wheat brown rust (Test Example 6); type: in vivo; details: single chemical
[6] = test system: tomato late blight fungus (Phytophthora infestans); type: in vivo; details: single chemical
[7] = test system: cucumber gray mold fungus (Botrytis cinerea); assay: Effect of combined application for controlling cucumber gray mold (Test Example 8); type: in vivo; details: single chemical, from diameter of lesion

## CNC(=O)C(=NOC)c1ccccc1C=NOC(C)c1cccc(C(F)(F)F)c1 (racemic) [2r, N-methyl-2-[2-{1-(3-trifluoromethylphenyl)ethoxyiminomethyl}phenyl]-2-methoxyiminoacetamide]
[1]
  Preventive value: 32
[2]
  LC50 value: 1,784 mg/kg
[2]; single oral dosage of 300 mg/kg
  mortality: no mortality
[2]; single oral dosage of 600 mg/kg
  cases died: 1/5
[2]; single oral dosage of 1,200 mg/kg
  cases died: 1/5
[2]; single oral dosage of 2,500 mg/kg
  cases died: 4/5
[2]; single oral dosage of 5,000 mg/kg
  cases died: 4/5
[3]; 2.0 ppm
  Preventive value (%): 64%
[3]; 4.0 ppm
  Preventive value (%): 96%

## CC1(C)CCC(Cc2ccc(Cl)cc2)C1(O)Cn1cncn1 (racemic) [Known compound a, (1RS,5RS;1RS,5SR)-5-(4-chlorobenzyl)-2,2-dimethyl-1-(1H-1,2,4-triazol-1-ylmethyl)cyclopentanol]
[4]; 0.2 ppm
  Preventive value (%): 35%
[4]; 1 ppm
  Preventive value (%): 80%
[5]; 0.2 ppm
  Preventive value (%): 25%
[5]; 1 ppm
  Preventive value (%): 81%

## CC(C)(C)C(O)(CCc1ccc(Cl)cc1)Cn1cncn1 (racemic) [Known compound b, (RS)-1-p-chlorophenyl-4,4-dimethyl-3-(1H-1,2,4-triazol-1-ylmethyl)pentan-3-ol]
[4]; 0.2 ppm
  Preventive value (%): 23%
[4]; 1 ppm
  Preventive value (%): 65%
[5]; 0.2 ppm
  Preventive value (%): 22%
[5]; 1 ppm
  Preventive value (%): 75%

## CC(Cc1ccc(C(C)(C)C)cc1)CN1C[C@@H](C)O[C@@H](C)C1 (mixture of isomers) [Known compound c, (±)-cis-4-[3-(4-tert-butylphenyl)-2-methylpropyl]-2,6-dimethylmorpholine]
[4]; 2.4 ppm
  Preventive value (%): 18%
[4]; 12 ppm
  Preventive value (%): 50%
[5]; 2.4 ppm
  Preventive value (%): 0%
[5]; 12 ppm
  Preventive value (%): 0%

## CNC(=O)C(=NOC)c1ccccc1C=NO[C@H](C)c1cccc(C(F)(F)F)c1 (single isomer, unassigned) [compound 1]
[1]
  Preventive value: 0
[3]; 2.0 ppm
  Preventive value (%): 6%
[3]; 4.0 ppm
  Preventive value (%): 51%

## CNC(=O)C(=NOC)c1ccccc1C=NO[C@@H](C)c1cccc(C(F)(F)F)c1 (single isomer, unassigned) [compound 2]
[1]
  Preventive value: 99
[2]
  LC50 value: ≥ 5,000 mg/kg
[4]; 0.2 ppm
  Preventive value (%): 25%
[4]; 1 ppm
  Preventive value (%): 87%
[6]; 0.4 ppm
  Preventive value (%): 23%
[6]; 2 ppm
  Preventive value (%): 73%
[6]; 10 ppm
  Preventive value (%): 95%
[7]; 0.4 ppm
  Preventive value (%): 13%
[7]; 2 ppm
  Preventive value (%): 53%
[7]; 10 ppm
  Preventive value (%): 94%
[5]; 0.2 ppm
  Preventive value (%): 2%
[5]; 1 ppm
  Preventive value (%): 48%
[3]; 2.0 ppm
  Preventive value (%): 97%
[3]; 4.0 ppm
  Preventive value (%): 100%

## CCCN(CCOc1c(Cl)cc(Cl)cc1Cl)C(=O)n1ccnc1 [Known compound d, N-propyl-N-[2-(2,4,6-trichlorophenoxy)ethyl]imidazole-1-carboxamide]
[6]; 0.2 ppm
  Preventive value (%): 62%
[6]; 1 ppm
  Preventive value (%): 79%
[6]; 5 ppm
  Preventive value (%): 95%
[5]; 2.4 ppm
  Preventive value (%): 0%
[5]; 12 ppm
  Preventive value (%): 19%

## O=[N+]([O-])c1cc(C(F)(F)F)c(Cl)c([N+](=O)[O-])c1Nc1ncc(C(F)(F)F)cc1Cl [Known compound f]
[7]; 0.2 ppm
  Preventive value (%): 52%
[7]; 1 ppm
  Preventive value (%): 68%
[7]; 5 ppm
  Preventive value (%): 98%
